# From ChEMBL document CHEMBL1201862, “PubChem BioAssay data set” (2004)
# Calls of active or inactive are those of the source.
# What was measured:
# [1] = A Cell Based Secondary Assay To Explore Cytotoxicity of Compounds that Sensitize Mycobacterium Tuberculosis to Beta-Lactam Antibiotics.; type: functional
# Vero = experiment: inhibition of WNV-induced cytopathic effect – cell-based, CPE readout (AID 1621); type: functional; details: Chlorocebus sabaeus
# [2] = target: T1, Ubiquitin-conjugating enzyme E2 N (Homo sapiens, UniProt P61088); type: functional;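 also: Dose-response confirmation in a TR-FRET assay detecting UBC13-driven polyubiquitin chain formation, inhibition measured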
# T1 sequence (P61088 whole entry): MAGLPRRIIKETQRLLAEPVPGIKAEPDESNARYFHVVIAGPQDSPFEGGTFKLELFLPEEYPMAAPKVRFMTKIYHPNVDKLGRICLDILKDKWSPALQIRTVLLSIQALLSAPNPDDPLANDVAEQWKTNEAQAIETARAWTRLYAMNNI
# [3] = target: T2, Neuropeptide Y receptor type 2 (Homo sapiens, UniProt P49146); type: functional, cell-based;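 also: HEK293 cells expressing the receptor and a CNG channel; stimulus was NPY near EC95 followed by isoproterenol to raise cAMP; antagonist potency measured as restoring cAMP signal that NPY suppresses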
# T2 sequence (P49146 whole entry): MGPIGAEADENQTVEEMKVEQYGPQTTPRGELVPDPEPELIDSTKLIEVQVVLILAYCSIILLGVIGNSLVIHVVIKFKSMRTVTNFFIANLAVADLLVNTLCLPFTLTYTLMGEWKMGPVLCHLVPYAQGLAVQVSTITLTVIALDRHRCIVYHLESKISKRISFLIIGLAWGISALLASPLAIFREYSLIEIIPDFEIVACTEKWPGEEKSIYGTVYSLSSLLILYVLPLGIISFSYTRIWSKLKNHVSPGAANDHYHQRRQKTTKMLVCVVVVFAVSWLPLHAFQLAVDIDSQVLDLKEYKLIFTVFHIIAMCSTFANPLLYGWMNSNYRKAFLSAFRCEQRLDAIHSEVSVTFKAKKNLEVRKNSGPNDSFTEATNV
# [4] = target: T3, Neuropeptide Y receptor type 1 (Homo sapiens, UniProt P25929); type: functional;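 also: HEK293 cells with a CNG channel challenged with NPY then isoproterenol; potency as antagonist that reverses NPY suppression of cAMP signal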
# T3 sequence (P25929 whole entry): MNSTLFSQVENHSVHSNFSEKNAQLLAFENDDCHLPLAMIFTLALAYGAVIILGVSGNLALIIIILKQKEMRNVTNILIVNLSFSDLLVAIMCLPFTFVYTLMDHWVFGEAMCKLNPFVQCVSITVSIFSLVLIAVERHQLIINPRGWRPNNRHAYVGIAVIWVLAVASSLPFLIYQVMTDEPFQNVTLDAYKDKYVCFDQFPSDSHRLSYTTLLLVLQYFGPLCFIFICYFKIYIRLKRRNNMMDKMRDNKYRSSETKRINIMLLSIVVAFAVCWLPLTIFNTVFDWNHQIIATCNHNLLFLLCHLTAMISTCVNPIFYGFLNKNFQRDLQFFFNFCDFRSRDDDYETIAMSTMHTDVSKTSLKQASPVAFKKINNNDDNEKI
# [5] = antiviral protection against BTV-induced cell death – arbovirus, BSR cells, confirmation (AID 1250); type: functional;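 also: protection from viral cytopathic effect measured as cell viability by ATP luminescence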
# [6] = target: G-protein coupled receptor 55 (Homo sapiens, UniProt Q9Y2T6); experiment: selective activators of receptor GPR55 – imaging, U2OS cells, beta-arrestin-GFP redistribution, primary screen (AID 1961); type: functional
# [7] = target: Peroxisome proliferator-activated receptor gamma/Nuclear receptor corepressor 2 (Homo sapiens, UniProt P37231+Q9Y618); type: functional
# [8] = target: Photoreceptor-specific nuclear receptor (Homo sapiens, UniProt Q9Y5X4); type: functional;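 also: potency for compounds that break the NR2E3 corepressor complex and count as activators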
# HT-1080 = experiment: HT1080 cell viability loss – fluorescence readout (AID 620); type: functional, cell-based; details: Homo sapiens
# [9] = target: Luciferin 4-monooxygenase (Photinus pyralis, UniProt P08659); experiment: Counter Screen for Luciferase-based Assay Positives. [Related pubchem assays: 620, 618, 411 ]
# Chain of Luciferin 4-monooxygenase (P08659 whole entry): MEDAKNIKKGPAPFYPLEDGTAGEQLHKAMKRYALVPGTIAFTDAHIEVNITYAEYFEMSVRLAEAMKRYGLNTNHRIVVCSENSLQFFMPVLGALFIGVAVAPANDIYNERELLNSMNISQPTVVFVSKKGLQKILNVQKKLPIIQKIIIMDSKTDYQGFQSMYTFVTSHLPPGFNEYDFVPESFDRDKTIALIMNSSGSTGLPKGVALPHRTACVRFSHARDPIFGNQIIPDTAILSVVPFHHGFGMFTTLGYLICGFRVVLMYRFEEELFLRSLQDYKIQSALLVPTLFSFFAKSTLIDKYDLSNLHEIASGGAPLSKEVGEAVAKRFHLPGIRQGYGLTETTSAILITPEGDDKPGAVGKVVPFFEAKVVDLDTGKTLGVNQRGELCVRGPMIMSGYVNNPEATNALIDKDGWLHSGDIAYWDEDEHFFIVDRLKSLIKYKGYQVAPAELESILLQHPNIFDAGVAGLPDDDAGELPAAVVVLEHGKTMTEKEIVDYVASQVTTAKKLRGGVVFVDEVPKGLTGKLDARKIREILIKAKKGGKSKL
# [10] = HIV-1 Vif–A3G interaction blockers – biochemical, TR-FRET, GST-Vif 1-94, biotin-A3G peptide, dose response retest, primary screen (AID 1117319); type: functional;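 also: TR-FRET signal of purified GST-Vif binding a biotinylated A3G peptide; inhibitors lower the FRET signal by blocking Vif and A3G binding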
# [11] = target: Mitogen-activated protein kinase 10 (Homo sapiens, UniProt P53779); experiment: Dose response biochemical screening assay for inhibitors of c-Jun N-Terminal Kinase 3 (JNK3). [Related pubchem assays: 746 ]
# NS3 = NS3 (Hepatitis C virus, UniProt A3EZJ3); experiment: PubChem AID 2173; parameters: species or system Hepacivirus hominis
# Chain of NS3 (A3EZJ3 whole entry): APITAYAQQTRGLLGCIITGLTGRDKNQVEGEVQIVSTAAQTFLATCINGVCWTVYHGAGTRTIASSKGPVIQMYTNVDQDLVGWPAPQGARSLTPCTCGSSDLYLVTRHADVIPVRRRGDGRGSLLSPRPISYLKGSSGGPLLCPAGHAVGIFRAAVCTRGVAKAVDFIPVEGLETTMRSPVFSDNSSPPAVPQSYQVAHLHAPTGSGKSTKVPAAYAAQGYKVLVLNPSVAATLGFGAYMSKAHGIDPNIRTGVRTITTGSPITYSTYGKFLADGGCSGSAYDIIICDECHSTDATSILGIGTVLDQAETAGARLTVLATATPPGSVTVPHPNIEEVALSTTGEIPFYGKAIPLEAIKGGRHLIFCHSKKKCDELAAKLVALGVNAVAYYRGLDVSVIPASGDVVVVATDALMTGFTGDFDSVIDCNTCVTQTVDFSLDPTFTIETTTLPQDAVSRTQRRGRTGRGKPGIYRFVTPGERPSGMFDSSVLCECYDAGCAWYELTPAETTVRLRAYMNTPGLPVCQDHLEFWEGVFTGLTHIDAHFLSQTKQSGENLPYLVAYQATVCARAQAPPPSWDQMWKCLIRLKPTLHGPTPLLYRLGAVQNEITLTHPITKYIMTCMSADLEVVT
# [12] = target: Peroxisome proliferator-activated receptor gamma/Nuclear receptor coactivator 3 (Homo sapiens, UniProt P37231); type: functional;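 also: agonist potency for raising coactivator recruitment to the receptor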
# Chain of Peroxisome proliferator-activated receptor gamma/Nuclear receptor coactivator 3 (P37231 whole entry): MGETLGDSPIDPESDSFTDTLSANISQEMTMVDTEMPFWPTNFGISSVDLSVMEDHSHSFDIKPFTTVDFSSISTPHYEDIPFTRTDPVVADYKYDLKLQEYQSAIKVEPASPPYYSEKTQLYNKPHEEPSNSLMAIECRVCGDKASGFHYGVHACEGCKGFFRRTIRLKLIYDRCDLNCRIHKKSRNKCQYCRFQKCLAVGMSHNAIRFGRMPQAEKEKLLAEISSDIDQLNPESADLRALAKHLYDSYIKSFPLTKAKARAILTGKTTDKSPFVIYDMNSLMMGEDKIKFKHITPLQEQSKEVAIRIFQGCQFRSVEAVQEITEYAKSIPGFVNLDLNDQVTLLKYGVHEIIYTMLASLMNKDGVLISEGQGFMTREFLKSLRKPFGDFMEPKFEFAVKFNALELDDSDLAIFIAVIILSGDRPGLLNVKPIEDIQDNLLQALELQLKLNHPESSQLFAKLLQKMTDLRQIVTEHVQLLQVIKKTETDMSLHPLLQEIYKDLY
# Chain of Peroxisome proliferator-activated receptor gamma/Nuclear receptor coactivator 3 (Q9Y6Q9 whole entry, further chain): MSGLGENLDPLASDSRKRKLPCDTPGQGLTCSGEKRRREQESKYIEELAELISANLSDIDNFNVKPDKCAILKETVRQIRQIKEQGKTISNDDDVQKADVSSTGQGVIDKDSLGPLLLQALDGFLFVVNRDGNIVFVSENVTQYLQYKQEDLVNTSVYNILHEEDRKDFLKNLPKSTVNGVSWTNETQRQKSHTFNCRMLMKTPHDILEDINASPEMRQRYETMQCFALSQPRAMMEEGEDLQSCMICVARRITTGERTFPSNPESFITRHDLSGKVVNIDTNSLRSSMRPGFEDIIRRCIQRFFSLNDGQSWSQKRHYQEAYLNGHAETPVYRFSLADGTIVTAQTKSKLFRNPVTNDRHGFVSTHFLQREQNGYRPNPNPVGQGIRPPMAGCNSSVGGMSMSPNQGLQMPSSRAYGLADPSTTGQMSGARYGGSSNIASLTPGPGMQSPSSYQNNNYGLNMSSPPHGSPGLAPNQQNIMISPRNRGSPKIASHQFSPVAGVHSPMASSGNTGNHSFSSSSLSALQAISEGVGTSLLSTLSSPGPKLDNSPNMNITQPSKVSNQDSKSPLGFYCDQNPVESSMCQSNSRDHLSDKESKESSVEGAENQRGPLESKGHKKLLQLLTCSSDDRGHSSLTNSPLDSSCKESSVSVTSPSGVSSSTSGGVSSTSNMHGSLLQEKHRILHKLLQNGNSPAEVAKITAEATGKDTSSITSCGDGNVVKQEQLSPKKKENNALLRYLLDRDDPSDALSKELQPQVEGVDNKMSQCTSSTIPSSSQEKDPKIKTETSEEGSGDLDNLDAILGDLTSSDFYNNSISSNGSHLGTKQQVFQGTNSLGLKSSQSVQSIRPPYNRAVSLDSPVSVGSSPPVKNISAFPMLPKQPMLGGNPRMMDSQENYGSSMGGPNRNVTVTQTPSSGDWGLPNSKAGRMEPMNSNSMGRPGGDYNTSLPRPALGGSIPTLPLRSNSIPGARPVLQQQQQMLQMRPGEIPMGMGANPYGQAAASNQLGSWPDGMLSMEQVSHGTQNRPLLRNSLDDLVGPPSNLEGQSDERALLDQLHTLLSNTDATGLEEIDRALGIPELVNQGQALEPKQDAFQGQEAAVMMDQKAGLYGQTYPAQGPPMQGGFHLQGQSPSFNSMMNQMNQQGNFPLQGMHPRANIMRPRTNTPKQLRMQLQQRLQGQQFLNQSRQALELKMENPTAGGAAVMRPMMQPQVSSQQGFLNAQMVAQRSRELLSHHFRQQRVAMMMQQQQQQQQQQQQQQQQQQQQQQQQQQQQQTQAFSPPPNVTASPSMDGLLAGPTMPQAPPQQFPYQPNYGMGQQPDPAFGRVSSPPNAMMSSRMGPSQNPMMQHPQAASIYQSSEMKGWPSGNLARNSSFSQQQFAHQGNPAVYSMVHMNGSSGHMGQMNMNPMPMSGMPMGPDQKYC
# [13] = target: Peroxisome proliferator-activated receptor gamma/Nuclear receptor coactivator 1 (Homo sapiens, UniProt P37231); type: functional;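 also: agonist potency as compounds enhance coactivator SRC-1 recruitment to PPARgamma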
# [14] = target: Peroxisome proliferator-activated receptor gamma/Nuclear receptor coactivator 2 (Homo sapiens, UniProt P37231); type: functional;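 also: agonist potency for raising coactivator recruitment to the receptor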
# Chain of Peroxisome proliferator-activated receptor gamma/Nuclear receptor coactivator 2 (P37231 whole entry): as the sequence (P37231 whole entry) above
# Chain of Peroxisome proliferator-activated receptor gamma/Nuclear receptor coactivator 2 (Q15596 whole entry, further chain): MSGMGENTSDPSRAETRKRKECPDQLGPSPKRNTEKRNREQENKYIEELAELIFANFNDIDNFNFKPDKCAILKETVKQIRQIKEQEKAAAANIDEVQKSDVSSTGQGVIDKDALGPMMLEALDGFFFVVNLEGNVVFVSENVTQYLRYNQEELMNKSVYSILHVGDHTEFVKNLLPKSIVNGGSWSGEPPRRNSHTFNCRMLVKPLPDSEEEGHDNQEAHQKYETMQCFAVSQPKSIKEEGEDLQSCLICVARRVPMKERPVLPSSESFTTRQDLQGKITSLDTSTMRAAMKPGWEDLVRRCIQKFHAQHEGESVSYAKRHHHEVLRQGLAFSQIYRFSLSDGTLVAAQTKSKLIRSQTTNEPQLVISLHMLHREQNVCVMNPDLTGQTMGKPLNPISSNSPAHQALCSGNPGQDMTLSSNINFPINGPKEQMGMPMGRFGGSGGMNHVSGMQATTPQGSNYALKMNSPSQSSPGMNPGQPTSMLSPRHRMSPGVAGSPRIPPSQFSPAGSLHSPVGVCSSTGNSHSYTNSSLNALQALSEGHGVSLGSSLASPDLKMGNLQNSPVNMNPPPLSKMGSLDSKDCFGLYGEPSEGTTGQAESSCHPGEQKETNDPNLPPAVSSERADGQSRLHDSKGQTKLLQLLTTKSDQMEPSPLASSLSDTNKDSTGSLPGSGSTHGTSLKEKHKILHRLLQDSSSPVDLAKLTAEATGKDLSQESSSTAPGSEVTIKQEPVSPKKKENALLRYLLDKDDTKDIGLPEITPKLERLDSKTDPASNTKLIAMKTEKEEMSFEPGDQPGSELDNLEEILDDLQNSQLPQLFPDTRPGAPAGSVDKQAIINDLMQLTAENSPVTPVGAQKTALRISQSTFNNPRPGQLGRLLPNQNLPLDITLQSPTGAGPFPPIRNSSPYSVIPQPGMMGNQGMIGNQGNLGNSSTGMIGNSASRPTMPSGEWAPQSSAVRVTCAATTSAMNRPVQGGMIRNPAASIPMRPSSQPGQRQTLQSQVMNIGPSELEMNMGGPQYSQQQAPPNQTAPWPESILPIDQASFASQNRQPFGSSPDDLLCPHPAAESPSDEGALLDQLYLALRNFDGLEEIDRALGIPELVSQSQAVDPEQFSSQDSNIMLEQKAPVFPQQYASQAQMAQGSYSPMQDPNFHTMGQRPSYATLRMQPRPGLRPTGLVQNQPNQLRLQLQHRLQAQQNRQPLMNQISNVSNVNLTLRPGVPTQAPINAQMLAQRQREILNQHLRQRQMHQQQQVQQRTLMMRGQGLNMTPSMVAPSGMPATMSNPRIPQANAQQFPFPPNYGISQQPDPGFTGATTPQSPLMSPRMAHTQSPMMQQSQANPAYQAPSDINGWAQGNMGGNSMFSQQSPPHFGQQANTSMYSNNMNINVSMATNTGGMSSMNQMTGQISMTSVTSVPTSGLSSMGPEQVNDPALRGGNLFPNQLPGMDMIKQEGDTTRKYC
# [15] = target: Melanin-concentrating hormone receptor 1 (Homo sapiens, UniProt Q99705); experiment: Fluorescence-based counterscreen for antagonists of the G-protein coupled receptor 7 (GPR7): cell-based high throughput dose response assay to identify antagonists of the melanin-concentrating hormone receptor 1 (MCHR1).; type: functional
# [16] = target: T4, Alkaline phosphatase, tissue-nonspecific isozyme (Homo sapiens, UniProt P05186)
# T4 sequence (P05186 whole entry): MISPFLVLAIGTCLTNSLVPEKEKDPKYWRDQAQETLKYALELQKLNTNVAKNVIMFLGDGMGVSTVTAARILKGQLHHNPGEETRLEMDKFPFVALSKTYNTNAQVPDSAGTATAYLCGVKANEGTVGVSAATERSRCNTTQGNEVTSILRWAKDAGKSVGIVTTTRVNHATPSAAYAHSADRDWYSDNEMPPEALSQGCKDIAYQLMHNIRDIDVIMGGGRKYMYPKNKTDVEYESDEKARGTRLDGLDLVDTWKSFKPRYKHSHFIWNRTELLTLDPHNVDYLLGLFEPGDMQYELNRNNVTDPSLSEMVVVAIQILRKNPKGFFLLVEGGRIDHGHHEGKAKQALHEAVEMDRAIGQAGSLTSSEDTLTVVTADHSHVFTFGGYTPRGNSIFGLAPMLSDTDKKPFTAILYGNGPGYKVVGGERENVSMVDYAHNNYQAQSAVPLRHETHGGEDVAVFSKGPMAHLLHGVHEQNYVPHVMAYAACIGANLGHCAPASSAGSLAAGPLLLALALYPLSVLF
# [17] = viability of HCT116 lacking mutant beta-catenin – cell-based, human colon tumor, dose response (AID 1045); type: functional;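 also: HCT116 colon tumor cells with beta catenin knocked out; cells exposed to compound for 60 hours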
# [18] = viability of PTEN-deleted HCT116 cells – cell-based, HCT116 PTEN knockout, dose response (AID 1047); type: functional;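 also: HCT116 colon tumor cells with PTEN knocked out; cells exposed to compound for 60 hours before readout; potency for loss of cell viability measured by luminescence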
# [19] = target: Heat shock protein HSP 90-alpha (Homo sapiens, UniProt P07900); type: functional, organism-based
# [20] = target: Protein-tyrosine kinase 2-beta (Homo sapiens, UniProt Q14289);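 also: potency of inhibitors of PYK2 kinase phosphorylation of poly-GT substrate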
# [21] = target: T5, Dual specificity protein phosphatase 6 (Rattus norvegicus, UniProt Q64346)
# T5 sequence (Q64346 whole entry): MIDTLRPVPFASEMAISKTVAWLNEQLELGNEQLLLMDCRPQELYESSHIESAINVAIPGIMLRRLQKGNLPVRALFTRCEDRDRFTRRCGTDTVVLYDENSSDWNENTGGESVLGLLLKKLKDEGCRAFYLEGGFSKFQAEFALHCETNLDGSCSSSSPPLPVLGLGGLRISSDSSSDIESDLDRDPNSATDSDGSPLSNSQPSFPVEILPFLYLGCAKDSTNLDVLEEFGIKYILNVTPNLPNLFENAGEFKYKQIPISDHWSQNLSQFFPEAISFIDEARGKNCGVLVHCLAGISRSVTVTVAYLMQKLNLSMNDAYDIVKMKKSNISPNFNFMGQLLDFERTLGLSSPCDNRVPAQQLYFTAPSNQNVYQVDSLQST
# [22] = target: Heat shock 70 kDa protein 1A (Homo sapiens, UniProt P0DMV8); experiment: inhibition of Hsp70 binding activity – biochemical, fluorescence polarization, SAR follow-up (AID 1072)
# [23] = target: T5, Dual specificity protein phosphatase 6; type: functional
# [24] = target: T6, Tyrosine-protein phosphatase non-receptor type 7 (Homo sapiens, UniProt P35236); type: functional
# T6 sequence (P35236 whole entry): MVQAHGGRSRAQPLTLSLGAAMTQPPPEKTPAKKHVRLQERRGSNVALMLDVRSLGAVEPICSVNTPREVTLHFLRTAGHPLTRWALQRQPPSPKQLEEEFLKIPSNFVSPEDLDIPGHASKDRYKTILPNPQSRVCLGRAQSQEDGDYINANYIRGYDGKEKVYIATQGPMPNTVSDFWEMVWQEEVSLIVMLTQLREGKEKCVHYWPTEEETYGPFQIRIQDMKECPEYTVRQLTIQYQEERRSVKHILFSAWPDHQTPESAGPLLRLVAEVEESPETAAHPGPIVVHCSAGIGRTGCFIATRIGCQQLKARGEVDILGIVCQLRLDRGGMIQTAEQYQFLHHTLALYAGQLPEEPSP
# [25] = target: Glyceraldehyde-3-phosphate dehydrogenase (Homo sapiens, UniProt P04406)
# [26] = target: Heat shock cognate 71 kDa protein (Homo sapiens, UniProt P11142); experiment: In Vitro Hsc70 Dose Response Fluorescence Polarization Assay. [Related pubchem assays: 1072 ]
# [27] = target: T4, Alkaline phosphatase, tissue-nonspecific isozyme; experiment: potency against alkaline phosphatase TNAP – biochemical, luminescent, dose response, SAR follow-up (AID 1056)
smiles,measurement,setting,value
O=C1NC(=S)NC(=O)C1=NNc1ccc2c(c1)OCCO2,CC50,[1],> 40 µM (active)
CCN(CC)CCC(c1cc(OC)c(OC)c(OC)c1)c1c(OC)cc(OC)c2c(-c3ccccc3)cc(=O)oc12 (configuration not stated),IC50,Vero,30.8 µM (active)
same,IC50,[2],> 20 µM (inactive)
Cc1cccc(CSC2=NCCN2C(=O)c2ccc(Br)o2)c1,IC50,[3],12.8 µM (not active)
same,IC50,[4],< 12 µM (not active)
Cc1ccccc1OCC(=O)N/N=C/c1cccc(Oc2ccc([N+](=O)[O-])cc2[N+](=O)[O-])c1,CC50,[1],33.9 µM (active)
COc1ccccc1-c1cc(C(=O)N2CCc3ccccc3C2)c2ccccc2n1,IC50,[5],28.8 µM (active)
same,EC50,[6],3.06 µM (active)
CCN(CC)CCN1C(=O)C(O)=C(C(=O)c2cc3ccccc3o2)C1c1cccnc1 (configuration not stated),IC50,[7],2.95 µM (active)
same,IC50,[8],> 39.8 µM (not active)
CN(C(=O)c1ccco1)c1nc2c(s1)CCCC2,EC50,HT-1080,> 50 µM (not active)
same,EC50,[9],> 100 µM (not active)
COc1ccc(C(=O)Nn2c(SCC(=O)N3CCC(C)CC3)nc3ccccc3c2=O)cc1,EC50,HT-1080,> 50 µM (not active)
same,EC50,[9],< 0.2 µM (active)
O=C(O)c1[nH]c2ccc(Cl)cc2c1CC(=O)N1CCN(C(=O)c2ccco2)CC1,IC50,[10],> 100 µM (active)
O=C1C(/C=N/Cc2cccnc2)=C(O)c2ccccc21,IC50,[11],32.1 µM (not active)
CC1(C)Cc2c(C#N)c(NCCc3ccccc3)nc(-c3ccco3)c2CO1,IC50,NS3,35.3 µM (not active)
Cc1cc(/C=C2/NC(=O)N(Cc3ccccc3F)C2=O)c(C)n1C,EC50,[12],> 79.4 µM (not active)
same,EC50,[13],> 79.4 µM (not active)
same,EC50,[14],> 79.4 µM (not active)
O=C(c1ccc(Cl)c(S(=O)(=O)N2CCCCCC2)c1)N1CCCCC1,IC50,[15],32.7 µM (not active)
O=C(NCCCN1CCOCC1)C1CC(=O)N(CCc2ccccc2)C1 (configuration not stated),IC50,[10],> 100 µM (active)
Cn1c(=O)c2c(nc(N/N=C/c3ccc(OC(=O)c4ccco4)cc3)n2Cc2ccccc2)n(C)c1=O,EC50,[16],> 100 µM (not active)
CCOc1ccc(NC(=O)c2c(NC(=O)CN3CCN(C)CC3)sc3c2CCC3)cc1,IC50,Vero,18.3 µM (active)
CCCCCOc1ccc(/C=c2\sc3nc(=O)c(-c4ccccc4)nn3c2=O)cc1OC,IC50,NS3,> 36.3 µM (not active)
COc1ccc(/C=N/n2c(N)nc3ccccc32)cc1OC,IC50,[11],16.6 µM (not active)
O=C(Nc1sc2c(c1C(=O)O)CCCCC2)c1ccccc1,IC50,[5],28.4 µM (active)
CN1CCc2nc3sc(C(=O)C45CC6CC(CC(C6)C4)C5)c(N)c3cc2C1,EC50,[17],27.4 µM (active)
same,EC50,[18],20.5 µM (active)
same,AC50,[19],1.82 µM (active)
same,IC50,[20],13.8 µM (not active)
CCOC(=O)CS(=O)(=O)c1ccc(O)cc1,EC50,[12],> 79.4 µM (not active)
same,EC50,[13],> 79.4 µM (not active)
same,EC50,[14],> 79.4 µM (not active)
O=C(O)C(O)c1ccccc1 (configuration not stated) [MANDELIC ACID],IC50,[21],> 100 µM (inactive)
same,IC50,[22],> 100 µM (not active)
same,IC50,[23],> 100 µM (inactive)
same,IC50,[24],> 100 µM (not active)
same,IC50,[25],> 100 µM (not active)
same,IC50,[26],> 100 µM (not active)
O=C(CSc1nnc[nH]1)NCCOc1ccccc1,IC50,[27],28.8 µM (active)
same,IC50,[22],> 100 µM (not active)
same,IC50,[25],> 100 µM (not active)
same,IC50,[26],> 100 µM (not active)
Cc1ccc(Cl)cc1-n1ncc2c(NNC(=O)c3ccco3)ncnc21,EC50,[16],63.2 µM (not active)
CCCCCC(=O)NC(=S)Nc1ccc(Br)cc1C,IC50,[3],6.11 µM (active)
same,IC50,[4],7.66 µM (active)
